Results published in paper PMC10795512 (Cell reports. Physical science, 2023).
Where no end group is shown, it is not given here.

Assays:
[1] = test system: E. coli ATCC 11775; experiment: MIC, broth microdilution; type: cell-based, Escherichia coli; conditions: LB broth, 5 × 10^5 CFU mL^−1, 24 h at 37°C, OD 600 nm, three replicates
[2] = test system: S. aureus ATCC 12600; experiment: MIC, broth microdilution; type: cell-based, Staphylococcus aureus; conditions: LB broth, 5 × 10^5 CFU mL^−1, 24 h at 37°C, OD 600 nm, three replicates
[3] = test system: P. aeruginosa PAO1; experiment: MIC, broth microdilution; type: cell-based, Pseudomonas aeruginosa; conditions: LB broth, 5 × 10^5 CFU mL^−1, 24 h at 37°C, OD 600 nm, three replicates
[4] = test system: P. aeruginosa PA14; experiment: MIC, broth microdilution; type: cell-based, Pseudomonas aeruginosa; conditions: LB broth, 5 × 10^5 CFU mL^−1, 24 h at 37°C, OD 600 nm, three replicates
[5] = test system: human embryonic kidney (HEK) cells (ATCC HEK293T); experiment: Cytotoxicity, XTT assay; type: cell-based
[6] = test system: primary human keratinocytes; experiment: Cytotoxicity, XTT assay; type: cell-based; conditions: for toxicity: at the highest concentration tested, 64 μmol L^−1, 24 h
[7] = test system: P. aeruginosa PAO1; experiment: Synergy; type: cell-based, Pseudomonas aeruginosa; conditions: checkerboard; for FICI, combined with PMB: 2- to 0.03-fold MIC, 24 h at 37°C, three replicates; for FICI, WT1 and WT2 in combination: different concentrations
[8] = test system: human erythrocytes; conditions: at a concentration of 10^−4 mol L^−1; cited from earlier work
[9] = test system: mouse erythrocytes; conditions: at a concentration of 10^−4 mol L^−1; cited from earlier work
[10] = test system: E. coli JW2703 (hypermutant strain) ΔmutS::kan; experiment: Resistance development assay; type: cell-based, Escherichia coli; conditions: over the same period (20 days)

AKLMGIVKKVLGAL-NH2 [A1–1]
MIC [1]: 4 µM
MIC [2]: 8 µM
MIC [3]: 16 µM
MIC [4]: 16 µM

LKLAGIVKKVLGAL-NH2 [A4–1]
MIC [1]: 4 µM
MIC [2]: 8 µM

LKLLAIVKKVLGAI-NH2 [A5–2]
MIC [1]: 4 µM
MIC [2]: 4 µM

LKLLGIVKKKLGAI-NH2 [K10–2]
MIC [1]: 4 µM
MIC [2]: 8 µM
MIC [3]: 4 µM
MIC [4]: 8 µM
toxicity ([5]; at 16 μmol L^−1, 24 h): no toxicity
cell viability remaining ([6]; at 8 μmol L^−1, 24 h): 92%

LKLLGIVKKVLAAI-NH2 [A12–2]
MIC [1]: 4 µM
MIC [2]: 2 µM

LKLLGIVKKVLGAI-NH2 [WT2, reference compound]
MIC [1]: 16 µM
MIC [2]: 32 µM
MIC [3]: 32 µM
MIC [4]: 64 µM
FICI, combined with PMB [7]: 0.5
FICI, WT1 and WT2 in combination [7]: 0.7
hemolytic activity [8]: hemolytic activity
hemolytic activity [9]: hemolytic activity

LKLLGIVKKVLGKI-NH2 [K13–2]
MIC [1]: 4 µM
MIC [3]: 4 µM
MIC [4]: 16 µM
toxicity ([5]; any of the concentrations tested (1 to 64 μmol L^−1), 24 h): no toxicity
toxicity [6]: low toxicity

LKLMAIVKKVLGAL-NH2 [A5–1]
MIC [1]: 4 µM
MIC [2]: 4 µM

LKLMGIVKKVLAAL-NH2 [A12–1]
MIC [1]: 2 µM
MIC [2]: 2 µM

LKLMGIVKKVLGAL-NH2 [WT1, reference compound]
MIC [1]: 8 µM
MIC [2]: 16 µM
MIC [3]: 32 µM
MIC [4]: 32 µM
FICI, combined with PMB [7]: 0.7
FICI, WT1 and WT2 in combination [7]: 0.7
hemolytic activity [8]: hemolytic activity
hemolytic activity [9]: hemolytic activity

LKLMGIVKKVLGKL-NH2 [K13–1]
MIC [1]: 4 µM
MIC [2]: 128 µM
MIC [3]: 8 µM
MIC [4]: 16 µM
FICI, combined with PMB [7]: 0.6
toxicity ([5]; at 4-fold MIC, 24 h): toxic
toxicity [6]: low toxicity

polymyxin B [PMB]
change of MIC during resistance assay [10]: did not vary significantly
